Columns and labels:
[1] = Percent metabolized in an in vitro human liver microsomal incubation assay after 60 min; assay type: ADME, Microsome; conditions: liver microsomes, read-out: Metabolism
Cavia porcellus [2] = species on record: Cavia porcellus; experiment: Inhibitory concentration against IKr current was measured in isolated guinea pig myocytes during a 0.5 s voltage clamp step from -50 to -10 mV; assay type: functional
Cavia porcellus [3] = species on record: Cavia porcellus; experiment: Inhibitory concentration against IKs current was measured in isolated guinea pig myocytes during a 1 s voltage clamp step […]; assay type: functional
Canis familiaris [4] = experiment: Ventricular relative Refractory period (msec) of compound was measured in chloralose anesthetized dogs (for its Class III activity in vivo) at dose of 0.001 mg/kg (iv); assay type: functional, Canis lupus familiaris, Heart
Canis familiaris [5] = experiment: QTc interval of compound was measured in chloralose anesthetized dogs(for its Class III activity in vivo) at dose of 0.001 mg/kg (iv); units are msec/square root of sec; assay type: functional, Canis lupus familiaris
Canis familiaris [6] = experiment: QTc interval of compound was measured in chloralose anesthetized dogs(for its Class III activity in vivo) at dose of 0.1 mg/kg (iv); units are msec/square root of sec; assay type: functional, Canis lupus familiaris
Canis familiaris [7] = experiment: QTc interval of compound was measured in chloralose anesthetized dogs(for its Class III activity in vivo) at dose of 0.01 mg/kg (iv); units are msec/square root of sec; assay type: functional, Canis lupus familiaris
Canis familiaris [8] = experiment: Ventricular relative Refractory period (msec) of compound was measured in chloralose anesthetized dogs (for its Class III activity in vivo) at dose of 0.01 mg/kg (iv); assay type: functional, Canis lupus familiaris, Heart
Canis familiaris [9] = experiment: Ventricular relative Refractory period (msec) of compound was measured in chloralose anesthetized dogs (for its Class III activity in vivo) at dose of 0.1 mg/kg (iv); assay type: functional, Canis lupus familiaris, Heart

IC50 (Cavia porcellus [3]) [nM] | SMILES | IC50 (Cavia porcellus [2]) [nM] | other results
 | CC(C)C1=NC(NC(=O)Cc2ccc(C(F)(F)F)cc2C(F)(F)F)C(=O)N(CC(F)(F)F)c2ccccc21 (configuration not stated) | > 1000 | metabolised at 1 h [1]: 70%; IC50 (Cavia porcellus [3]; Cavia porcellus): 6 nM
0.08 | CC[C@@H](C)N1C(=O)C(NC(=O)Cc2ccc(C(F)(F)F)cc2C(F)(F)F)N=C(C2CC2)c2ccccc21 (single isomer, unassigned; (-)) |  | Ventricular relative refractory period (Canis familiaris [4]): 176 ms; QTc Interval (Canis familiaris [5]): 384 ms s-1; QTc Interval (Canis familiaris [6]): 454 ms s-1; QTc Interval (Canis familiaris [7]): 392 ms s-1; Ventricular relative refractory period (Canis familiaris [8]): 180 ms; Ventricular relative refractory period (Canis familiaris [9]): 198 ms
1.2 | CCCN1C(=O)C(NC(=O)Cc2ccc(C(F)(F)F)cc2C(F)(F)F)N=C(C2CC2)c2ccccc21 (single isomer, unassigned; (-)) |  | 
 | O=C(Cc1ccc(C(F)(F)F)cc1C(F)(F)F)N[C@@H]1N=C(c2ccccc2)c2ccccc2N(CC(F)(F)F)C1=O [L-768673] | 6000 | IC50 (Cavia porcellus [3]; Cavia porcellus): 6 nM
4 | CCN1C(=O)C(NC(=O)Cc2ccc(C(F)(F)F)cc2C(F)(F)F)N=C(C2CC2)c2ccccc21 (single isomer, unassigned; (-)) |  | 
50 | CC[C@@H](C)N1C(=O)C(NC(=O)Cc2ccc(C(F)(F)F)cc2C(F)(F)F)N=C(C2CC2)c2ccccc21 (single isomer, unassigned; (+)) | > 1000 | 
200 | CCN1C(=O)C(NC(=O)Cc2ccc(C(F)(F)F)cc2C(F)(F)F)N=C(C2CC2)c2ccccc21 (stereo in doubt; 6 (+)) | > 1000 | 
0.4 | CC[C@H](C)N1C(=O)C(NC(=O)Cc2ccc(C(F)(F)F)cc2C(F)(F)F)N=C(C2CC2)c2ccccc21 (single isomer, unassigned; (-)) | > 1000 | 
38 | CN1C(=O)C(NC(=O)Cc2ccc(C(F)(F)F)cc2C(F)(F)F)N=C(C2CC2)c2ccccc21 (stereo in doubt; 4 (+)) |  | 
180 | CC[C@H](C)N1C(=O)C(NC(=O)Cc2ccc(C(F)(F)F)cc2C(F)(F)F)N=C(C2CC2)c2ccccc21 (single isomer, unassigned; (+)) |  | 
 | O=C(Cc1ccc(C(F)(F)F)cc1C(F)(F)F)NC1N=C(C2CC2)c2ccccc2N(CC(F)(F)F)C1=O (single isomer, unassigned; (+)) | > 1000 | metabolised at 1 h [1]: ~15%; IC50 (Cavia porcellus [3]; Cavia porcellus): 1.5 nM
280 | CN1C(=O)C(NC(=O)Cc2ccc(C(F)(F)F)cc2C(F)(F)F)N=C(C2CC2)c2ccccc21 (single isomer, unassigned; (-)) | > 1000 | 
165 | CCCN1C(=O)C(NC(=O)Cc2ccc(C(F)(F)F)cc2C(F)(F)F)N=C(C2CC2)c2ccccc21 (single isomer, unassigned; (+)) | > 1000 | 

SMILES | IC50 (Cavia porcellus [3]) [nM] | IC50 (Cavia porcellus [2]) [nM] | other results
CC[C@@H](C)N1C(=O)C(NC(=O)Cc2ccc(C(F)(F)F)cc2C(F)(F)F)N=C(c2ccccc2)c2ccccc21 (single isomer, unassigned; (+)) | 3.7 |  | 
CC[C@@H](C)N1C(=O)C(NC(=O)Cc2ccc(C(F)(F)F)cc2C(F)(F)F)N=C(c2ccccc2)c2ccccc21 (stereo in doubt; 15 (-)) | 44 | > 1000 | 

Source: ChEMBL document CHEMBL1136660, “Novel 5-cyclopropyl-1,4-benzodiazepin-2-ones as potent and selective I(Ks)-blocking class III antiarrhythmic agents” (Bioorg Med Chem Lett, 2003)
